Measurements as given in ChEMBL document CHEMBL3870328, “Synthesis of novel Ral inhibitors: An in vitro and in vivo study” (Bioorg Med Chem Lett, 2016).
Calls of active or inactive are those of the source. The calls are words filed in the database; no cut-off is given here.

Legend:
[1] = (§1) Cytotoxicity against human NCI-H2122 cells under anchorage-independent condition assessed as cell growth inhibition after 10 days by nitro blue tetrazolium-based microscopic analysis; assay type: functional; details: NCI-H2122, 240 h
[2] = molecular target: T1, Ras-related protein Ral-A (Homo sapiens) (UniProt P11233); test: Inhibition of RalA activity in human H2122 spheroids after 4 hrs by RalBP1 pull down assay
T1 sequence (whole entry): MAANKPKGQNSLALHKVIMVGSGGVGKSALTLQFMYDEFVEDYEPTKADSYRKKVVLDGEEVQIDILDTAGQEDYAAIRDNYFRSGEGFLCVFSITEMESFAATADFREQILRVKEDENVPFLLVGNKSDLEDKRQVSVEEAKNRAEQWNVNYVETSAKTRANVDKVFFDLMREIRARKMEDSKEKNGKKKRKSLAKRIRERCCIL

[3] = Half life in ip dosed mouse plasma; assay type: ADME, organism-based
[4] = Drug uptake in heart of mouse xenografted with human NCI-H2122 cells at 50 mg/kg, ip after 3 hrs by LC-MS/MS analysis; assay type: ADME, organism-based; details: read-out: Drug uptake
[5] = Drug uptake in lungs of mouse xenografted with human NCI-H2122 cells at 50 mg/kg, ip after 3 hrs by LC-MS/MS analysis; assay type: ADME, organism-based; details: lung, read-out: Drug uptake
[6] = Drug uptake in brain of mouse xenografted with human NCI-H2122 cells at 50 mg/kg, ip after 3 hrs by LC-MS/MS analysis; assay type: ADME, organism-based; details: read-out: Drug uptake
[7] = Drug uptake in tumor of mouse xenografted with human NCI-H2122 cells at 50 mg/kg, ip after 3 hrs by LC-MS/MS analysis; assay type: ADME, organism-based, Neoplasm; details: read-out: Drug uptake
[8] = molecular target: T2, Ras-related protein Ral-B (Homo sapiens) (UniProt P11234); test: Inhibition of RalB activity in human H2122 spheroids after 4 hrs by RalBP1 pull down assay
T2 sequence (whole entry): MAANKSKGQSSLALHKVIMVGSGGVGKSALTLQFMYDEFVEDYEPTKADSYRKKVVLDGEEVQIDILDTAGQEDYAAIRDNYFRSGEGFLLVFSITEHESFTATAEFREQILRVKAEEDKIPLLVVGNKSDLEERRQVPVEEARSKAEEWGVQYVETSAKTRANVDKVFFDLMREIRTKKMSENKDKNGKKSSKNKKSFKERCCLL

NCI-H2122 = test: as §1; assay type: functional
[9] = Drug uptake in kidney of mouse xenografted with human NCI-H2122 cells at 50 mg/kg, ip after 3 hrs by LC-MS/MS analysis; assay type: ADME, organism-based; details: read-out: Drug uptake
[10] = Drug uptake in liver of mouse xenografted with human NCI-H2122 cells at 50 mg/kg, ip after 3 hrs by LC-MS/MS analysis; assay type: ADME, organism-based; details: read-out: Drug uptake
[11] = Plasma concentration in mouse xenografted with human NCI-H2122 cells at 50 mg/kg, ip after 3 hrs by LC-MS/MS analysis; assay type: ADME, organism-based

| SMILES | IC50 [1] [µM] | further results |
| --- | --- | --- |
| Cc1nn(-c2ccccc2)c2c1C(c1ccc(F)cc1)C(C#N)=C(N)O2 (stereo not drawn) | 6.6 |  |
| Cn1nc(-c2ccccc2)c2c1OC(N)=C(C#N)C2c1ccc(C#N)cc1 (stereo not drawn) | 5.2 |  |
| Cn1nc(-c2ccccc2)c2c1OC(N)=C(C#N)C2c1ccc(-n2ccnc2)cc1 (stereo not drawn) |  | inhibition [2]: Dose-dependent effect; half-life [3]: < 1.5 h; concentration at 3 h [4]: 930 ng/g; concentration at 3 h [5]: 1090 ng/g; concentration at 3 h [6]: 170 ng/g; concentration at 3 h [7]: 380 ng/g; inhibition [8]: Dose-dependent effect; growth inhibition (GI) (NCI-H2122): Active; concentration at 3 h [9]: 630 ng/g; concentration at 3 h [10]: 980 ng/g; concentration at 3 h [11]: 490 ng/mL |
| Cc1nn(C)c2c1C(c1cc(F)cc(F)c1)C(C#N)=C(N)O2 (stereo not drawn) | 4.2 |  |
| Cn1nc(-c2ccccc2)c2c1OC(N)=C(C#N)C2c1ccc(OC(F)(F)F)cc1 (stereo not drawn) | 5.5 |  |
| COc1ccc(C2C(C#N)=C(N)Oc3c2c(-c2ccccc2)nn3C)cc1F (stereo not drawn) | > 10 |  |
| CC(C)c1ccc(C2C(C#N)=C(N)Oc3c2c(-c2ccccc2)nn3C)cc1 (stereo not drawn) | 5.4 |  |
| Cc1nn(C)c2c1C(c1ccc(OC(F)(F)F)cc1)C(C#N)=C(N)O2 (stereo not drawn) | 2.9 |  |
| COc1ccc(-c2nn(C)c3c2C(c2ccc(F)cc2)C(C#N)=C(N)O3)cc1OC (stereo not drawn) | > 10 |  |
| COc1ccc(-c2nn(C)c3c2C(c2ccc(OC)cc2)C(C#N)=C(N)O3)cc1 (stereo not drawn) | > 10 |  |
| Cn1nc(-c2ccccc2)c2c1OC(N)=C(C#N)C2c1ccc(C(F)(F)F)cc1 (stereo not drawn) | 4.1 |  |
| COc1ccc(-c2nn(-c3ccccc3)c3c2C(c2ccc(F)cc2)C(C#N)=C(N)O3)cc1OC (stereo not drawn) | 7.6 |  |
| N#CC1=C(N)Oc2c(c(-c3ccccc3)nn2-c2ccccc2)C1c1ccc(F)cc1 (stereo not drawn) | 4.1 |  |
| Cn1nc(-c2ccccc2)c2c1OC(N)=C(C#N)C2c1ccc2c(c1)OCCO2 (stereo not drawn) | 8.4 |  |
| Cn1nc(-c2ccccc2)c2c1OC(N)=C(C#N)C2c1ccc(F)cc1 (stereo not drawn) | > 10 |  |
| Cn1nc(-c2ccccc2)c2c1OC(N)=C(C#N)C2c1ccncc1 (stereo not drawn) | 5.2 |  |
| Cc1nn(C)c2c1C(c1ccncc1)C(C#N)=C(N)O2 (stereo not drawn) | 4.1 |  |
| COc1ccc(C2C(C#N)=C(N)Oc3c2c(C)nn3C)cc1 (stereo not drawn) | 8.6 |  |
| Cn1nc(-c2ccccc2)c2c1OC(N)=C(C#N)C2c1cccnc1 (stereo not drawn) | > 10 |  |
| COc1cc(OC)c(C2C(C#N)=C(N)Oc3c2c(C)nn3C)c(OC)c1 (stereo not drawn) | 1.6 |  |
| COc1ccc(-c2nn(-c3ccccc3)c3c2C(c2ccccc2)C(C#N)=C(N)O3)cc1 (stereo not drawn) | 7.2 |  |
| Cc1nn(-c2ccccc2)c2c1C(c1ccccc1)C(C#N)=C(N)O2 (stereo not drawn) | 2.7 |  |
| Cc1nn(C)c2c1C(c1cccc(Br)n1)C(C#N)=C(N)O2 (stereo not drawn) | 2.4 |  |
